Columns and labels:
[1] = refractive index (Na D-line) (dimensionless); xn = mol fraction of the nth substance listed; conditions: 101 kPa, Liquid, Standard Abbe refractometry
[2] = xn = mol fraction of the nth substance listed; conditions: 101 kPa, Liquid; for speed of sound: Sing-around technique in a fixed-path interferometer; for mass density: Vibrating tube method

CCCCCCCC[n+]1ccn(C)c1.F[B-](F)(F)F [1-methyl-3-octylimidazolium tetrafluoroborate] + C1CCOC1
Conditions	mass density, 298.15 K [kg/m3]	mass density, 308.15 K [kg/m3]	mass density, 318.15 K [kg/m3]	refractive index, 298.15 K	refractive index, 308.15 K	refractive index, 318.15 K	speed of sound, 298.15 K [m/s]	speed of sound, 308.15 K [m/s]	speed of sound, 318.15 K [m/s]
[1], x1 = 0.0963	–	–	–	1.41425	1.40956	1.40529	–	–	–
[1], x1 = 0.2018	–	–	–	1.42039	1.4162	1.41236	–	–	–
[1], x1 = 0.312	–	–	–	1.42432	1.42045	1.41715	–	–	–
[1], x1 = 0.4027	–	–	–	1.42658	1.4228	1.41965	–	–	–
[1], x1 = 0.4917	–	–	–	1.42817	1.42451	1.42147	–	–	–
[1], x1 = 0.6241	–	–	–	1.42996	1.42631	1.42348	–	–	–
[1], x1 = 0.6862	–	–	–	1.43062	1.42695	1.42415	–	–	–
[1], x1 = 0.7615	–	–	–	1.43129	1.4277	1.42493	–	–	–
[1], x1 = 0.8612	–	–	–	1.43207	1.42846	1.4258	–	–	–
[1], x1 = 1	–	–	–	1.43296	1.42939	1.42684	–	–	–
[2], x1 = 0.0963	944.168	934.385	924.531	–	–	–	1310.8	1268.5	1226.8
[2], x1 = 0.2018	987.574	978.487	969.198	–	–	–	1351.2	1313.4	1276.2
[2], x1 = 0.312	1018.46	1010.19	1001.93	–	–	–	1384.9	1350.7	1317.1
[2], x1 = 0.4027	1037.11	1029.2	1021.32	–	–	–	1406.3	1374.4	1343
[2], x1 = 0.4917	1051.3	1043.65	1035.82	–	–	–	1422.9	1392.6	1362.8
[2], x1 = 0.6241	1067.66	1060.32	1053.02	–	–	–	1442.5	1413.9	1385.9
[2], x1 = 0.6862	1073.96	1066.73	1059.49	–	–	–	1450.2	1422.2	1394.9
[2], x1 = 0.7615	1080.76	1073.65	1066.46	–	–	–	1458.6	1431.1	1404.5
[2], x1 = 0.8612	1088.58	1081.55	1074.56	–	–	–	1470.2	1444.2	1416.3
[2], x1 = 1	1097.61	1090.9	1084.17	–	–	–	1481.1	1453.9	1428.2

CCCCCCCC[n+]1ccn(C)c1.F[B-](F)(F)F [1-methyl-3-octylimidazolium tetrafluoroborate] + C1COCCO1
Conditions	mass density, 298.15 K [kg/m3]	mass density, 308.15 K [kg/m3]	mass density, 318.15 K [kg/m3]	refractive index, 298.15 K	refractive index, 308.15 K	refractive index, 318.15 K	speed of sound, 298.15 K [m/s]	speed of sound, 308.15 K [m/s]	speed of sound, 318.15 K [m/s]
[1], x1 = 0.0859	–	–	–	1.42308	1.41854	1.41465	–	–	–
[1], x1 = 0.192	–	–	–	1.42601	1.42173	1.41833	–	–	–
[1], x1 = 0.2914	–	–	–	1.42812	1.42412	1.42107	–	–	–
[1], x1 = 0.3963	–	–	–	1.42935	1.42549	1.42264	–	–	–
[1], x1 = 0.4955	–	–	–	1.43039	1.42664	1.42387	–	–	–
[1], x1 = 0.5947	–	–	–	1.43124	1.42746	1.42483	–	–	–
[1], x1 = 0.69	–	–	–	1.43181	1.42809	1.42548	–	–	–
[1], x1 = 0.7938	–	–	–	1.43221	1.42865	1.42605	–	–	–
[1], x1 = 0.8893	–	–	–	1.43262	1.42907	1.42628	–	–	–
[1], x1 = 1	–	–	–	1.43296	1.42939	1.42684	–	–	–
[2], x1 = 0.0859	1049.95	1040.08	1030.18	–	–	–	1380.8	1341.1	1301.8
[2], x1 = 0.192	1064.93	1055.92	1047.49	–	–	–	1414.2	1378.1	1343.1
[2], x1 = 0.2914	1074.44	1066.14	1057.87	–	–	–	1436.8	1403.6	1370.9
[2], x1 = 0.3963	1080.96	1073.08	1065.23	–	–	–	1451.6	1420.6	1390
[2], x1 = 0.4955	1085.46	1077.85	1070.11	–	–	–	1460.4	1430.9	1401.8
[2], x1 = 0.5947	1088.93	1081.57	1074.25	–	–	–	1466.5	1438	1410.1
[2], x1 = 0.69	1091.4	1084.18	1076.98	–	–	–	1469	1440.8	1414.8
[2], x1 = 0.7938	1093.66	1086.61	1079.53	–	–	–	1475.1	1447.9	1421.7
[2], x1 = 0.8893	1095.2	1088.29	1081.42	–	–	–	1477.8	1450.9	1425.1
[2], x1 = 1	1097.61	1090.9	1084.17	–	–	–	1481.1	1453.9	1428.2

CCCCCCn1cc[n+](C)c1.F[B-](F)(F)F [1-hexyl-3-methylimidazolium tetrafluoroborate] + C1COCCO1
Conditions	mass density, 298.15 K [kg/m3]	mass density, 308.15 K [kg/m3]	mass density, 318.15 K [kg/m3]	refractive index, 298.15 K	refractive index, 308.15 K	refractive index, 318.15 K	speed of sound, 298.15 K [m/s]	speed of sound, 308.15 K [m/s]	speed of sound, 318.15 K [m/s]
[1], x1 = 0.0956	–	–	–	1.4241	1.42009	1.41587	–	–	–
[1], x1 = 0.2039	–	–	–	1.42717	1.42329	1.41958	–	–	–
[1], x1 = 0.2945	–	–	–	1.42874	1.42525	1.42174	–	–	–
[1], x1 = 0.368	–	–	–	1.42944	1.42625	1.42294	–	–	–
[1], x1 = 0.4876	–	–	–	1.43034	1.42727	1.42429	–	–	–
[1], x1 = 0.5831	–	–	–	1.43075	1.42802	1.42519	–	–	–
[1], x1 = 0.6816	–	–	–	1.43106	1.42839	1.42546	–	–	–
[1], x1 = 0.7695	–	–	–	1.43149	1.42861	1.42574	–	–	–
[1], x1 = 0.8594	–	–	–	1.43152	1.42868	1.42604	–	–	–
[1], x1 = 1	–	–	–	1.43167	1.4289	1.42612	–	–	–
[2], x1 = 0.0956	1060.24	1050.11	1040.21	–	–	–	1373.3	1332.3	1291
[2], x1 = 0.2039	1084.24	1074.91	1065.52	–	–	–	1403	1364.1	1324.8
[2], x1 = 0.2945	1098.98	1089.94	1081.15	–	–	–	1422	1384.1	1346.8
[2], x1 = 0.368	1107.75	1099.02	1090.42	–	–	–	1434	1398.1	1362.7
[2], x1 = 0.4876	1119.03	1110.69	1102.5	–	–	–	1450.5	1417.6	1384.3
[2], x1 = 0.5831	1125.92	1118.09	1110.2	–	–	–	1461	1430.1	1398.7
[2], x1 = 0.6816	1131.92	1124.09	1116.5	–	–	–	1470.5	1441.5	1412.2
[2], x1 = 0.7695	1136.19	1128.65	1121.26	–	–	–	1478.1	1450.5	1423.2
[2], x1 = 0.8594	1140.02	1132.69	1125.9	–	–	–	1485.9	1459.7	1433.3
[2], x1 = 1	1145.11	1137.71	1130.49	–	–	–	1496.7	1472	1447.7

CCCCCCn1cc[n+](C)c1.F[B-](F)(F)F [1-hexyl-3-methylimidazolium tetrafluoroborate] + C1CCOC1
Conditions	mass density, 298.15 K [kg/m3]	mass density, 308.15 K [kg/m3]	mass density, 318.15 K [kg/m3]	refractive index, 298.15 K	refractive index, 308.15 K	refractive index, 318.15 K	speed of sound, 298.15 K [m/s]	speed of sound, 308.15 K [m/s]	speed of sound, 318.15 K [m/s]
[1], x1 = 0.0989	–	–	–	1.41416	1.41006	1.40595	–	–	–
[1], x1 = 0.2022	–	–	–	1.42016	1.41657	1.41275	–	–	–
[1], x1 = 0.3014	–	–	–	1.42373	1.42043	1.4171	–	–	–
[1], x1 = 0.3985	–	–	–	1.42607	1.42284	1.41964	–	–	–
[1], x1 = 0.5109	–	–	–	1.4279	1.42491	1.42175	–	–	–
[1], x1 = 0.5974	–	–	–	1.42888	1.42609	1.42305	–	–	–
[1], x1 = 0.6974	–	–	–	1.42974	1.427	1.42418	–	–	–
[1], x1 = 0.8045	–	–	–	1.4305	1.42774	1.42511	–	–	–
[1], x1 = 0.8865	–	–	–	1.43095	1.42822	1.42548	–	–	–
[1], x1 = 1	–	–	–	1.43167	1.4289	1.42612	–	–	–
[2], x1 = 0.0989	954.559	945.509	936.105	–	–	–	1306.3	1263.5	1221.2
[2], x1 = 0.2022	1005.23	996.175	987.171	–	–	–	1346.4	1308	1270.1
[2], x1 = 0.3014	1040.84	1032.56	1023.55	–	–	–	1379.6	1344.7	1310.1
[2], x1 = 0.3985	1066.08	1058.03	1049.53	–	–	–	1406.7	1374.4	1342.6
[2], x1 = 0.5109	1089.28	1081.23	1072.72	–	–	–	1431.3	1401.3	1371.8
[2], x1 = 0.5974	1103.2	1095.15	1087.75	–	–	–	1447	1418.5	1390.3
[2], x1 = 0.6974	1116.29	1109.24	1102.04	–	–	–	1462.8	1435.6	1408.7
[2], x1 = 0.8045	1128.3	1121.25	1114.44	–	–	–	1477.3	1451.1	1425.4
[2], x1 = 0.8865	1135.58	1128.53	1121.52	–	–	–	1486.9	1461.3	1436.2
[2], x1 = 1	1145.11	1137.71	1130.49	–	–	–	1496.7	1472	1447.7
